Measurements from patent US20170248582A1, “Mixed Spheroids of Melanocytes and Keratinocytes” (Syntivia, priority 2014, published 2017).
“Also recorded” adds a separate entry of the source.

What was measured:
[1] = system: mixed spheroids of keratinocytes and melanocytes; assay: Assay of melanin on mixed spheroids after treatment (photometry, melanin / total proteins); assay type: cell-based, Human
Procedure: The cells were lysed in a solution of 1M NaOH+10% DMSO and incubated 30 min at 90° C. A standard range was prepared with synthetic melanin and read-out performed at a wavelength of 405 nm. Assay of total proteins was performed on the lysate of melanin assay using the microBCA kit in accordance with the supplier's instructions. A standard range was prepared with BSA and read-out was performed at a wavelength of 605 nm. The results are expressed in the form of a ratio between the assay of melanin and assay of total proteins. 24 h after seeding, the mixed spheroids of the invention such as prepared in Example 1, and after removal of Matrigel® by washing with PBS, were treated with 300 μM IBMX or 500 μM PTU for 5 days with renewal of treatment at 4 days. The melanin was assayed as explained in Example 3.

[2] = system: genes MITF, TYR, TYRP1 and PMEL in mixed spheroids of keratinocytes and melanocytes; assay: Quantification of pigmentation gene expression by quantitative PCR in mixed spheroids; assay type: cell-based, Human; settings: 300 μM IBMX for 24 h, normalised to GAPDH, vs non-treated control
Procedure: 48 h after their seeding the mixed spheroids of the invention such as prepared in Example 1, and after removal of Matrigel® by washing with PBS, were treated with 300 μM IBMX for 24 h. The spheroids were collected and washed with PBS after 24 h treatment with IBMX. The RNAs were extracted and reverse-transcribed to cDNA. Quantitative PCR was then performed to quantify the expression of the genes MITF, TYR, TYRP1 and PMEL. The expression of these genes was normalised by expression of the GAPDH housekeeping gene and compared with the non-treated control.

Row | SMILES | induction of the amount of melanin in relation to total proteins ([1]; 300 μM IBMX for 5 days, renewal at 4 days, vs solvent control (DMSO)) [%] | total amount of melanin in the mixed spheroid ([1]; 300 μM IBMX for 5 days, compared with solvent control (DMSO), FIG. 8) | MITF expression, increased by a factor of [2] | expression of MITF gene ([2]; FIG. 9) | expression of PMEL gene ([2]; FIG. 9) | expression of TYR gene ([2]; FIG. 9) | expression of TYRP1 gene ([2]; FIG. 9) | global amount of melanin in the mixed spheroid / melanin production ([1]; 500 μM PTU for 5 days, compared with solvent control (EtOH), FIG. 8)
1 | CC(C)Cn1c(=O)n(C)c(=O)c2[nH]cnc21 [IBMX, 3-isobutyl-1-methylxanthine] | 50 | increase in the total amount of melanin | 5 | induced; also recorded: expression increased | induced; also recorded: increased | induced; also recorded: increased | induced; also recorded: increased | 
2 | CCCc1cc(=O)[nH]c(=S)[nH]1 [PTU, propylthiouracil] |  |  |  |  |  |  |  | inhibits melanin production; also recorded: decrease in the global amount of melanin
